Results on 2 molecules are retold here after patent US20100196926A1, “Combined Method And Kit For The Sequential Measurement of (1) The Enzymatically Active Fraction And (2) The Total Amount Of An Enzyme” (UNIVERSITE DE LIEGE, priority 2007, published 2010).

The subject of this assay is activated equine neutrophils. Description: Combined SIEFED-ELISA measurement of total and active MPO released by PMA-activated equine neutrophils pre-incubated with polyphenols. It is filed as cell-based, horse. The settings on record: for inhibition percentage on total enzyme (MPO) release / inhibition percentage on MPO activity (active fraction of MPO released): 10^-5 M, neutrophils pre-incubated 10 min at 37° C., activated 30 min with 8×10^−7 M PMA, supernatant. The procedure: The primary antibody(2), that captures the enzyme (MPO 1), is a rabbit IgG (3 μg/ml). Standard enzyme (MPO) or unknown sample is incubated 2 h at 37° C. After washing, the (peroxidase) activity of the enzyme (MPO) is detected by adding 100 μl of a 10 μM H2O2 solution and 40 μM of Amplex® Red (8) (10-acetyl-3,7-dihydroxyphenoxazine; from Molecular Probes) in phosphate buffer (50 mM, pH 7.5). The fluorescence is read during 30 min (at 37° C.) at 590 nm with a Fluoroskan Ascent apparatus (Labsystems). The volumes of the primary antibody(2) and the sample put in the wells, are 200 μl. Controls (blank) and dilutions of the samples are established with dilution buffer.
Enhancement of fluorescence was obtained when adding a defined concentration of nitrites ions (about 10 mM) to the Amplex® Red solution (8). The fluorescence response obtained in this SIEFED steps (part) of the combined SIEFED-ELISA bioassay is directly proportional to the enzymatically active fraction of the enzyme (equine MPO) present in the sample.
After the SIEFED detection, a washing (0.9% NaCl solution containing 0.1% tween 20) is performed before starting the ELISA part of the combined method; the immobilized antibody(2)—antigen(1) complex is incubated (2 h, 37° C.) with an excess (5 μg/ml) of guinea pig IgG, the secondary antibody (4). After washing, a third antibody (5) produced against guinea pig IgG is added. This third IgG (5) (goat IgG) is labeled with alkaline phosphatase (6) and recognizes the “sandwich” complex “primary antibody (2)—MPO(1)—secondary antibody”(4). After washing, phosphatase activity is detected by incubation (30 min, 37° C., in the darkness) with a paranitrophenyl phosphate solution (phosphatase substrate, Sigma). The reaction is stopped with NaOH and the absorbance (405 nm) is measured with a Multiscan Ascent apparatus (Labsystem). All the volumes added into the wells comprise 100 μl, except for washing (300 μl) and for the substrate solution (200 μl). Controls (blank) and dilutions of the standard enzyme (MPO) and samples were established with dilution buffer [PBS (20 mM phosphate, 137 mM NaCl and 2.7 mM KCl pH 7.4) to which 5 g/L bovine serum albumin and 0.1% tween 20 were added].
Neutrophils isolated from citrated blood of healthy horses were counted, suspended in phosphate buffer saline (PBS) at pH 7.4 and incubated 10 min at 37° C. with curcumin or THC at the final concentration of 10^−4, 10^−5 or 10^−6 M. After incubation and centrifugation (1000×g, 10 min), the neutrophils were resuspended in PBS and activated 30 min with 8×10^−7 M phorbol myristate acetate (PMA) followed by centrifugation and active and total enzyme (MPO) measurement in the supernatant by the combined SIEFED-ELISA specific bioassay. The effects of polyphenols on total and active fraction of enzyme (MPO) released by stimulated neutrophils were studied by pre-incubation of neutrophils with the drugs at various concentrations, before the neutrophil stimulation.

For the molecule `COc1cc(/C=C/C(=O)CC(=O)/C=C/c2ccc(O)c(OC)c2)ccc1O` [curcumin, Curcumin], under “ELISA part”, the “inhibition percentage on total enzyme (MPO) release” value amounted to 44%. Further, for the setting “SIEFED part”, the “inhibition percentage on MPO activity (active fraction of MPO released)” value turned out to be 60%. In addition, the “effect on the total enzyme (MPO) released by activated neutrophils” value (10^−4, 10^−5 or 10^−6 M, PMA-activated equine neutrophils, ELISA part) is given as “dose dependent inhibitory effects”. Besides, where the note is “10^−4, 10^−5 or 10^−6 M, PMA-activated equine neutrophils, SIEFED part”, the “effect on the active fraction of the enzyme (MPO) released by activated neutrophils” value is listed as “dose dependent inhibitory effects”.

For the molecule `COc1cc(CCC(=O)CC(=O)CCc2ccc(O)c(OC)c2)ccc1O` [THC, Tetrahydrocurcumin], the “inhibition percentage on total enzyme (MPO) release” value (ELISA part) is 18%. Moreover, the “inhibition percentage on MPO activity (active fraction of MPO released)” value (SIEFED part) stood at 22%.
